How the values were obtained:
[1] = target: ALK tyrosine kinase receptor (Homo sapiens, UniProt Q9UM73); assay: Inhibition of recombinant human wild type ALK using tyrosine kinase substrate-biotin after 30 mins by HTRF assay
NCI-H2228 = assay: Antiproliferative activity against human NCI-H2228 cells after 96 hrs by CellTiter-Glo assay; format: functional, cell-based; settings: NCI-H2228, 96 h
[2] = Antiproliferative activity against human KARPAS299 cells after 96 hrs by CellTiter-Glo assay; format: functional, cell-based; settings: KARPAS-299, 96 h
[3] = target: ALK tyrosine kinase receptor (Homo sapiens, UniProt Q9UM73, L1196M); assay: Inhibition of recombinant human ALK L1196M mutant using tyrosine kinase substrate-biotin after 30 mins by HTRF assay
ALK tyrosine kinase receptor (Homo sapiens, UniProt Q9UM73, L1196M), sequence (Q9UM73 19-1620 L1196M limits assumed): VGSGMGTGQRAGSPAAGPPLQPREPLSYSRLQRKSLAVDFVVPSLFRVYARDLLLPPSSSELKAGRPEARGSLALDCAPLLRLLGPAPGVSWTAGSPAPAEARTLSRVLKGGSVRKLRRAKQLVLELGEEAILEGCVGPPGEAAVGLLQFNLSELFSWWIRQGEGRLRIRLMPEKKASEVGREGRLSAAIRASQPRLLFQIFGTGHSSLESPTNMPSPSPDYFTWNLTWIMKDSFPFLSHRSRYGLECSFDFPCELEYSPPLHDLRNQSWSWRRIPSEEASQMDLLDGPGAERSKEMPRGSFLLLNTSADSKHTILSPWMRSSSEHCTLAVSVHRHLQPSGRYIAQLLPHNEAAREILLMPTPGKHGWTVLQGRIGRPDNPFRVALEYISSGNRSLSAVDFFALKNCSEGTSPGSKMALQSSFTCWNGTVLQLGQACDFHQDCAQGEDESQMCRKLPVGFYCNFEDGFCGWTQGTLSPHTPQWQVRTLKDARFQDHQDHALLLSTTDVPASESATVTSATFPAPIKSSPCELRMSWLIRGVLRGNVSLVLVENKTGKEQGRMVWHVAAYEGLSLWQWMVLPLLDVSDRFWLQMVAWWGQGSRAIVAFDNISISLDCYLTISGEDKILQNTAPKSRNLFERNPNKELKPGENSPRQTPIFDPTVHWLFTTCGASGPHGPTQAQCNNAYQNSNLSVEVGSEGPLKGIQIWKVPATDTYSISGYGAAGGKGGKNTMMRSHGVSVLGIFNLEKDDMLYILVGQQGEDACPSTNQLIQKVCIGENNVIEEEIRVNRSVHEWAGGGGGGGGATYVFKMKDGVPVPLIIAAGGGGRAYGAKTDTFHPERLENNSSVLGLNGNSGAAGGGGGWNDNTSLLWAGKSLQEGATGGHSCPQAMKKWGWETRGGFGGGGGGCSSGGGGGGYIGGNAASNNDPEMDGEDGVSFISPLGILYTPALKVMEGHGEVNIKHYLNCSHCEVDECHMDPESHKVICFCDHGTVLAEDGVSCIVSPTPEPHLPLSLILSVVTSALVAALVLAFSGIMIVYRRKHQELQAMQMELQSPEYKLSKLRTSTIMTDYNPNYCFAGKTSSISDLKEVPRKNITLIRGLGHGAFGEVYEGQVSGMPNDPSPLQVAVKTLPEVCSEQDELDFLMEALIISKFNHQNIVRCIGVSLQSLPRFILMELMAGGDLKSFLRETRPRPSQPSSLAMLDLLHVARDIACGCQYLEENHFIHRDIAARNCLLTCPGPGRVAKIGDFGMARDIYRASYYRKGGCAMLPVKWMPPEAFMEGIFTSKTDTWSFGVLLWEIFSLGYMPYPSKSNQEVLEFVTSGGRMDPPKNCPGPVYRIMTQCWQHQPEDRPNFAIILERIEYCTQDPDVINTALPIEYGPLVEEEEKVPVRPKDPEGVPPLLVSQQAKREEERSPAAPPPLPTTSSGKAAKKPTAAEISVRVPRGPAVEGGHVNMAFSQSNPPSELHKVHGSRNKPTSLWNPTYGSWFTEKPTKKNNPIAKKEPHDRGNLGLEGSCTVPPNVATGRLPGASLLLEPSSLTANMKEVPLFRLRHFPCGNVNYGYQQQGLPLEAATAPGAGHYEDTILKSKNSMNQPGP

[4] = Ratio of IC50 for human ERG to IC50 for human NCI-H2228 cells

ALK tyrosine kinase receptor (Homo sapiens, UniProt Q9UM73), sequence (Q9UM73 whole entry): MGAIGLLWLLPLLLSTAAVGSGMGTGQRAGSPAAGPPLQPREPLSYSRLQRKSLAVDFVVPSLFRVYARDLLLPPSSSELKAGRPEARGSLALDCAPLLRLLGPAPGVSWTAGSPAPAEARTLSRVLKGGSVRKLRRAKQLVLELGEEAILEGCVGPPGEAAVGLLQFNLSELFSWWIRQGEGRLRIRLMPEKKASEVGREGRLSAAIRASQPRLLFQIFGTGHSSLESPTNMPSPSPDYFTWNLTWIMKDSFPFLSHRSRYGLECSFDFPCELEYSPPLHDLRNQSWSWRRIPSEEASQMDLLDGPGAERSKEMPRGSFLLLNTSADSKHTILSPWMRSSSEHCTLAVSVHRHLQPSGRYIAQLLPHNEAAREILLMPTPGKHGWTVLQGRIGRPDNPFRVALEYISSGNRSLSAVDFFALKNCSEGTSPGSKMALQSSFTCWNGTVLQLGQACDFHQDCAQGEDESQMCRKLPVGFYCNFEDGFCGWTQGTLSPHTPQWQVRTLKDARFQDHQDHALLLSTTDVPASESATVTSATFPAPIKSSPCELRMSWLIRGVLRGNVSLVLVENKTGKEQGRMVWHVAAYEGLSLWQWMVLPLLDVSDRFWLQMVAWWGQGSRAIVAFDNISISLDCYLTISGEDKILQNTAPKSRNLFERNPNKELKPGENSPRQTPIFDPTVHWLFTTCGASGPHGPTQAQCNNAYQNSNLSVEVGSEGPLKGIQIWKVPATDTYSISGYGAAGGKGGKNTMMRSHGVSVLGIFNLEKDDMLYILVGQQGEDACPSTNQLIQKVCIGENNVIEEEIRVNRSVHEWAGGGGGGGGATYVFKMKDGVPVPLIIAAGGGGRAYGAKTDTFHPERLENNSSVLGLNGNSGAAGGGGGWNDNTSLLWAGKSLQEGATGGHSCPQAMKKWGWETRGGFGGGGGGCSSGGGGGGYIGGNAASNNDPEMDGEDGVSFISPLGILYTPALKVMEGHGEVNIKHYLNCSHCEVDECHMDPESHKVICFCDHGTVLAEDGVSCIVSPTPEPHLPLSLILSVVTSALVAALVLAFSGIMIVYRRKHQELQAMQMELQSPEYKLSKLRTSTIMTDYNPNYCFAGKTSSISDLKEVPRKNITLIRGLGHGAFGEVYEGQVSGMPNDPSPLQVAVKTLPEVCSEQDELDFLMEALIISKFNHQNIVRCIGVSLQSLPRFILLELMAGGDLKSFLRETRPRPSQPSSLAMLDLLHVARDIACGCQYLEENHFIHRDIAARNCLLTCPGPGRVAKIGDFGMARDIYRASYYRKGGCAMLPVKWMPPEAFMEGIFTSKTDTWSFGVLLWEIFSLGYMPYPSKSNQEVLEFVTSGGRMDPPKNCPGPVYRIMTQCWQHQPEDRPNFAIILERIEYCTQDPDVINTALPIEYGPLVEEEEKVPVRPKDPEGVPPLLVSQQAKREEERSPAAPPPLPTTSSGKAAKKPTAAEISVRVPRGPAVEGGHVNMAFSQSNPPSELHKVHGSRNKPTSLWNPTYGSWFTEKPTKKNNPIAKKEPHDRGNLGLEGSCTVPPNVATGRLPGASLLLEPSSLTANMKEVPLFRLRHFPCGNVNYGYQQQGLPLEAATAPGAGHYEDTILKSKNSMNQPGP

Row | SMILES | IC50 [1] | IC50 (NCI-H2228) | IC50 [3] | IC50 [2] | Ratio IC50 [4]
1 | Cc1cc(Nc2ncc(Cl)c(Nc3cn(C)nc3S(=O)(=O)C(C)C(C)C)n2)c(OC(C)C)cc1C1CCNCC1 (stereo unspecified) | 753 nM | > 10000 nM | 3900 nM | > 10000 nM | –
2 | Cc1nc(S(=O)(=O)C(C)C)c(Nc2nc(Nc3cc(C)c(C4CCN(C)CC4)cc3OC3CC3)ncc2Cl)s1 | – | 150 nM | – | – | –
3 | Cc1cc(Nc2ncc(Cl)c(Nc3cn(C4CC4)nc3S(=O)(=O)C(C)C)n2)c(OC(C)C)cc1C1CCNCC1 | – | 248 nM | – | 37 nM | –
4 | CCC(C)S(=O)(=O)c1nn(C)cc1Nc1nc(Nc2cc(C)c(C3CCNCC3)cc2OC(C)C)ncc1Cl (stereo unspecified) | – | 224 nM | – | 21 nM | –
5 | Cc1cc(Nc2ncnc(Nc3cn(C)nc3S(=O)(=O)C(C)C)n2)c(OC2CC2)cc1C1CCN(C)CC1 | 36 nM | – | 111 nM | – | –
6 | Cc1cc(Nc2ncc(Cl)c(Nc3cn(C)nc3S(=O)(=O)CC(C)C)n2)c(OC(C)C)cc1C1CCNCC1 | – | 193 nM | – | 24 nM | –
7 | Cc1cc(Nc2ncc(Cl)c(Nc3cn(C)nc3S(=O)(=O)N(C)C)n2)c(OC(C)C)cc1C1CCNCC1 | 6680 nM | – | > 10000 nM | – | –
8 | Cc1cc(Nc2ncc(Cl)c(Nc3cn(C)nc3S(C)(=O)=O)n2)c(OC(C)C)cc1C1CCNCC1 | 56 nM | – | 94 nM | 288 nM | –
9 | CCn1cc(Nc2nc(Nc3cc(C)c(C4CCNCC4)cc3OC(C)C)ncc2Cl)c(S(=O)(=O)C(C)C)n1 | 20 nM | 764 nM | 28 nM | 68 nM | –
10 | Cc1cc(Nc2ncc(Cl)c(Nc3cn(C)nc3S(=O)(=O)C3CC3)n2)c(OC(C)C)cc1C1CCNCC1 | 400 nM | > 10000 nM | > 10000 nM | > 10000 nM | –

More lines, main results first:

Row | IC50 [1] | IC50 (NCI-H2228) | IC50 [3] | SMILES | IC50 [2] | Ratio IC50 [4]
11 | – | 54 nM | – | Cc1cc(Nc2ncc(Cl)c(Nc3cn(C)nc3S(=O)(=O)C(C)C)n2)c(OC2CC2)cc1[C@H]1CC[C@H](NC(C)C)CC1 | 5 nM | 16
12 | – | 60 nM | – | CCN(CC)[C@H]1CC[C@@H](c2cc(OC3CC3)c(Nc3ncc(Cl)c(Nc4cn(C)nc4S(=O)(=O)C(C)C)n3)cc2C)CC1 | – | –
13 | – | 81 nM | – | Cc1cc(Nc2ncc(F)c(Nc3cn(C)nc3S(=O)(=O)C(C)C)n2)c(OC2CC2)cc1C1CCN(C)CC1 | – | –
14 | – | 210 nM | – | Cc1cc(Nc2ncc(Cl)c(Nc3cn(C)nc3S(=O)(=O)C(C)C)n2)c(OC2CC2)cc1[C@H]1CC[C@H](NCCN(C)C)CC1 | – | –
15 | 3 nM | 97 nM | 9 nM | Cc1cc(Nc2ncc(Cl)c(Nc3cn(C)nc3S(=O)(=O)C(C)C)n2)c(OC2CC2)cc1C1CCS(=O)(=O)CC1 | – | 206
16 | – | 174 nM | – | Cc1cc(Nc2ncc(Cl)c(Nc3cn(C)nc3S(=O)(=O)C(C)C)n2)c(OC2CC2)cc1C1CCOCC1 | 18 nM | 21
17 | – | 141 nM | – | Cc1cc(Nc2ncc(Cl)c(Nc3cn(C)nc3S(=O)(=O)C(C)C)n2)c(OC2CC2)cc1C1CCC(N2CCN(C)CC2)CC1 (mixture of isomers) | – | 6

From ChEMBL document CHEMBL3785058, “Design and synthesis of novel 3-sulfonylpyrazol-4-amino pyrimidines as potent anaplastic lymphoma kinase (ALK) inhibitors” (Bioorg Med Chem Lett, 2016)
